Data on 22 compounds can be found in ChEMBL document CHEMBL1135217, “N-aryl 2,6-dimethoxybiphenylalanine analogues as VLA-4 antagonists” (Bioorg Med Chem Lett, 2002).

As a reminder, the pIC50 is the IC50 on a negative log10 scale, so that one unit is a factor of ten. A word on the Vdss: it is a proportionality between amount in the body and measured concentration, not a real space. A high value points to wide distribution into tissue. One may read the bioavailability as dose-corrected exposure relative to a reference, in per cent. Low readings indicate poor availability, high ones good availability. In general, inhibition refers to the percentage by which the read-out fell short of the control. Read a low inhibition as a response near the control.

The structures appear in SMILES notation. pIC50: −log10 of the molar value.

Data set [1] has as its target T1, Integrin alpha-4/beta-1 (Homo sapiens, UniProt P05556+P13612). The data set is described as follows: In vitro inhibition of [125I]VCAM-Ig binding to very late antigen -4 on jurkat cells. The class given is cell-based.
A short description of data set [2]: Clearance in Dawley rat. The class given is ADME, organism-based. Particulars: Sprague-Dawley, plasma, read-out: Clp.
Data set [3] is filed under the species Rattus norvegicus. The experiment in a line: Volume of distribution at steady state in Dawley rat. Particulars: in vivo.
Data set [4] is filed under the species Rattus norvegicus. The experiment in a line: Half-life was determined in Dawley rat. Particulars: in vivo.
The nature of data set [5]: Bioavailability in rat (Sprague-Dawley). The class given is ADME, organism-based. Particulars: in vivo.
The target in data set [6] is T1, Integrin alpha-4/beta-1. The data set is described as follows: Inhibition of [125I]-VCAM-Ig binding to very late antigen -4 (VLA-4) on Jurkat cells at 4 uM. The class given is cell-based.

T1 sequence (P05556 whole entry): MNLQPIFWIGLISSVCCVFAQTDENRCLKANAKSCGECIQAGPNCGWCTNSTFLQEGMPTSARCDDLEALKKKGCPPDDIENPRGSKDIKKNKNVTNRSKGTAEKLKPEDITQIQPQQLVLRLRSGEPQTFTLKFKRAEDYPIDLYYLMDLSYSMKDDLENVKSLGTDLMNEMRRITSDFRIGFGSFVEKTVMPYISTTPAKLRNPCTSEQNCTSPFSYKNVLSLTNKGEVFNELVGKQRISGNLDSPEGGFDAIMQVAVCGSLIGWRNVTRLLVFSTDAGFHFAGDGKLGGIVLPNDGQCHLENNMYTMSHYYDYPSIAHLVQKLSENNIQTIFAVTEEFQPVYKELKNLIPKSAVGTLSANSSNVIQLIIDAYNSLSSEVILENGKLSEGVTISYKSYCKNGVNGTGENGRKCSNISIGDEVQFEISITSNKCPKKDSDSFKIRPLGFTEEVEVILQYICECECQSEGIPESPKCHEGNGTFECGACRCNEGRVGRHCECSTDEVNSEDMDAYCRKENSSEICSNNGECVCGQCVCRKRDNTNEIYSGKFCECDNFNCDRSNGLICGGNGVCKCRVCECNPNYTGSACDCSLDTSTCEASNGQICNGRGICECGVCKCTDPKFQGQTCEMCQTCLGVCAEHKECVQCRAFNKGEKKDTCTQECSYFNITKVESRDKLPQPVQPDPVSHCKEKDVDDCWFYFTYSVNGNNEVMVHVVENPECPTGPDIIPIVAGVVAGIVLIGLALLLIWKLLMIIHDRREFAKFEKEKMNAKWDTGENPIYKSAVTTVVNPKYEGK
T1 sequence (P13612 whole entry): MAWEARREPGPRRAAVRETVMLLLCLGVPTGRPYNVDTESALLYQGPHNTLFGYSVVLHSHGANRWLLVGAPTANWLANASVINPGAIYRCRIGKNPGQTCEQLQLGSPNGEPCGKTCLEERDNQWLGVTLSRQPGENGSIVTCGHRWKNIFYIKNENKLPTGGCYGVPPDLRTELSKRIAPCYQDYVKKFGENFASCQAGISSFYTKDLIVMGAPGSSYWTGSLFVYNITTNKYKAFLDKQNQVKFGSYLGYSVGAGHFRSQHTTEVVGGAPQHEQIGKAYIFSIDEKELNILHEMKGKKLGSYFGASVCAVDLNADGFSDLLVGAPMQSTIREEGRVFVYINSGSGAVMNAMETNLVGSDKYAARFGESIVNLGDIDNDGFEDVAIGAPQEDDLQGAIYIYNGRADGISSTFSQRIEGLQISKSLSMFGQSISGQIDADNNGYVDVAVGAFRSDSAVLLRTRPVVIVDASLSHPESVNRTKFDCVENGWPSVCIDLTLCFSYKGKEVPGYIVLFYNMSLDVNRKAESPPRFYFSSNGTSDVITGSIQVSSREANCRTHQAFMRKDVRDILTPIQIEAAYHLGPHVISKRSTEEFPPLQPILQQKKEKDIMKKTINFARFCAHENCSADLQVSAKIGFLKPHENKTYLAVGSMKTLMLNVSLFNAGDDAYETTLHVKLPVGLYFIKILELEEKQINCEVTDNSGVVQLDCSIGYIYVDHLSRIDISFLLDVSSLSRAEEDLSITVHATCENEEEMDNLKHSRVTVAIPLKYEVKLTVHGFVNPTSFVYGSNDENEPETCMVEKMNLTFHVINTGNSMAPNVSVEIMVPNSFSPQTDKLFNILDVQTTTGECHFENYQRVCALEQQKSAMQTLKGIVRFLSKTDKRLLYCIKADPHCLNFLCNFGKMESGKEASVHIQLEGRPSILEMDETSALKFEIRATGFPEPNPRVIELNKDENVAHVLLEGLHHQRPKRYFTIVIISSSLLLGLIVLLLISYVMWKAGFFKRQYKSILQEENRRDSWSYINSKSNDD

Compound `COc1cccc(OC)c1-c1ccc(CC(Nc2ccc(C(=O)N3CCCC3)cc2)C(=O)O)cc1` (stereo not given) gave a pIC50 on Integrin alpha-4/beta-1 [1] of 6.49.

On Integrin alpha-4/beta-1 [1], `COc1cccc(OC)c1-c1ccc(CC(Nc2cccnc2)C(=O)O)cc1` (stereo not given) had a pIC50 of 6.09.

`COc1cccc(OC)c1-c1ccc(CC(Nc2ccc(C(=O)N3CCCC3)cn2)C(=O)O)cc1` (stereo not given): at Integrin alpha-4/beta-1 [1], the pIC50 is 7.64.

The compound `COc1cccc(NC(Cc2ccc(-c3c(OC)cccc3OC)cc2)C(=O)O)n1` (stereo not given) showed a pIC50 at Integrin alpha-4/beta-1 [1] of 5.38.

Regarding `COc1cccc(OC)c1-c1ccc(CC(NC(=O)c2ccccc2)C(=O)O)cc1` (stereo not given), the pIC50 at Integrin alpha-4/beta-1 [1] was 8.92.

Turning to `COc1cccc(OC)c1-c1ccc(CC(Nc2cc(Cl)cc(Cl)c2)C(=O)O)cc1` (stereo not given), the pIC50 at Integrin alpha-4/beta-1 [1] is 5.19.

For `COc1cccc(OC)c1-c1ccc(CC(Nc2ccc(S(=O)(=O)N3CCCC3)cc2)C(=O)O)cc1` (stereo not given), at Integrin alpha-4/beta-1 [1], the pIC50 is 7.04.

Compound `COc1cccc(OC)c1-c1ccc(CC(Nc2cccc(C#N)c2)C(=O)O)cc1` (stereo not given) gave a pIC50 at Integrin alpha-4/beta-1 [1] of 5.36.

The compound `COc1cccc(OC)c1-c1ccc(C[C@H](NC(C)=O)C(=O)O)cc1` had a pIC50 on Integrin alpha-4/beta-1 [1] of 7.92.

The compound `COc1cccc(OC)c1-c1ccc(CC(Nc2ccc(C(F)(F)F)cn2)C(=O)O)cc1` (stereo not given) had a pIC50 at Integrin alpha-4/beta-1 [1] of 5.50.

In the case of `COc1cccc(OC)c1-c1ccc(CC(Nc2ccc(S(C)(=O)=O)cc2)C(=O)O)cc1` (stereo not given), the pIC50 on Integrin alpha-4/beta-1 [1] was 7.01.

As to `CCCS(=O)(=O)c1cc(NC(Cc2ccc(-c3c(OC)cccc3OC)cc2)C(=O)O)ncn1` (stereo not given), the pIC50 on Integrin alpha-4/beta-1 [1] is 9.41. For the same compound, the clearance in data set [2] was found to be 17 mL/min/kg. For the same compound, in the data set listed under Rattus norvegicus [3], the Vdss worked out at 0.28 L/kg. The T1/2 in the data set filed under Rattus norvegicus [4] was determined as 48 min. The same compound had a bioavailability in data set [5] of 6%.

On Integrin alpha-4/beta-1 [1], `COc1cccc(OC)c1-c1ccc(CC(Nc2ccccn2)C(=O)O)cc1` (stereo not given) showed a pIC50 of 6.21.

At Integrin alpha-4/beta-1 [1], `COc1cccc(OC)c1-c1ccc(CC(Nc2ccncc2)C(=O)O)cc1` (stereo not given) showed a pIC50 of 6.77.

For the compound `COc1cccc(OC)c1-c1ccc(CC(Nc2cccc(S(=O)(=O)N3CCCC3)c2)C(=O)O)cc1` (stereo not given), the pIC50 at Integrin alpha-4/beta-1 [1] is 7.92. The clearance in data set [2] was determined as 73 mL/min/kg. For the same compound, the Vdss in the data set listed under Rattus norvegicus [3] was 0.55 L/kg. This compound returned a T1/2 in the data set listed under Rattus norvegicus [4] of 54 min. Also, the bioavailability in data set [5] turned out to be 24%.

On Integrin alpha-4/beta-1 [1], `COc1cccc(OC)c1-c1ccc(CC(Nc2ccccc2)C(=O)O)cc1` (stereo not given) showed a pIC50 of 5.05.

For `COc1cccc(OC)c1-c1ccc(CC(Nc2ccc([N+](=O)[O-])cc2)C(=O)O)cc1` (stereo not given), on Integrin alpha-4/beta-1 [1], the pIC50 was 5.28.

On to `COc1cccc(OC)c1-c1ccc(CC(Nc2cc(C(F)(F)F)cc(C(F)(F)F)c2)C(=O)O)cc1` (stereo not given), for which the inhibition at Integrin alpha-4/beta-1 [6] was 46%.

As to `COc1cccc(OC)c1-c1ccc(CC(Nc2ccc(C(F)(F)F)cc2)C(=O)O)cc1` (stereo not given), at Integrin alpha-4/beta-1 [6], the inhibition came to 45%.

On to `COc1cccc(OC)c1-c1ccc(CC(Nc2ccc(S(=O)(=O)c3ccccc3)cc2)C(=O)O)cc1` (stereo not given), for which the pIC50 on Integrin alpha-4/beta-1 [1] was 6.62.

On to `COc1cccc(OC)c1-c1ccc(CC(Nc2ccccc2[N+](=O)[O-])C(=O)O)cc1` (stereo not given), for which, on Integrin alpha-4/beta-1 [1], the pIC50 is 5.45. This pIC50 lies 1.17 log units lower than the previous one.

Regarding `COc1cccc(OC)c1-c1ccc(CC(Nc2ccc(C#N)cc2)C(=O)O)cc1` (stereo not given), the pIC50 at Integrin alpha-4/beta-1 [1] is 5.35.
